In US20230116733A1, “NOVEL INDAZOLE DERIVATIVE AND USE THEREOF” (KOREA RESEARCH INSTITUTE OFCHEMICAL TECHNOLOGY, priority 2019, published 2023):
Structures can show the parent of a compound that is named as a salt. Where two headings read alike, the source gives them in different places.

Tests used:
[1] = test system: A549; experiment: Assay for anticancer activity, cell viability (Cell Counting Kit-8); format: cell-based; conditions: A549 cells, 10 μM compound, 3 days
Method: (§1) Assay for anticancer activity was conducted as follows. Corresponding cancer cells were seeded at a density of 4,000 cells/well into 96-well plates and stabilized for 24 hours. Thereafter, the cells in each well were treated with 10 μM of the each of the compounds for 3 days. Then, cell viability was assayed using Cell Counting Kit-8 from Dojindo.

[2] = test system: HepG2; experiment: as above; format: cell-based; conditions: HepG2 cells, 10 μM compound, 3 days
Method: as §1

[3] = biological target: T1, TRIB2 (Homo sapiens, UniProt Q92519); experiment: TRIB2 kinase activity assay (Eurofins, 33P-ATP filter binding); format: biochemical; set-up: purchased Eurofins
T1 sequence (Q92519 1-343): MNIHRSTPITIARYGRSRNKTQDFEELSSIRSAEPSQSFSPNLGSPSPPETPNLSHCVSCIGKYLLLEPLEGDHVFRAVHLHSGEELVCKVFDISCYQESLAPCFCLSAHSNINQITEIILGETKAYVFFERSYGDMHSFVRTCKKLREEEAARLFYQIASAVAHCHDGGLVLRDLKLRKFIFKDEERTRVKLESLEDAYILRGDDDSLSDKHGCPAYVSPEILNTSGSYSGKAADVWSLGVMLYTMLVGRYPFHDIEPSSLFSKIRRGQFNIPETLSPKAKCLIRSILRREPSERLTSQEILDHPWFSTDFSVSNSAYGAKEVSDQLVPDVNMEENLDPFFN
Method: TRIB2 kinase activity assay was conducted in Eurofins. […] Afterward, the reaction was terminated with 0.5% phosphoric acid.

[4] = human TRIB2, 15 μM gamma-33P-ATP, 120 minutes at room temperature, read-out: TRIB2 Kimase activity assay IC50

Compound | Cell viability (% of Con. 10 μM) A549 [1] | Cell viability (% of Con. 10 μM) HepG2 [2] | IC50 [3, 4] [nM] | IC50 [3] [nM]
O=Cc1ccc(-c2ccc3[nH]nc(C(=O)Nc4ccncc4)c3c2)o1 [Compound 47, 5-(5-formylfuran-2-yl)-N-(pyridin-4-yl)-1H-indazole-3-carboxamide] | 55 % of Con. | 32 % of Con. | 10 to 100 | 
CC1(C)NCCc2ccc(NC(=O)c3n[nH]c4ccc(-c5cccnc5F)cc34)cc21 [Compound 59, N-(1,1-dimethyl-1,2,3,4-tetrahydroisoquinolin-7-yl)-5-(2-fluoropyridin-3-yl)-1H-indazole-3-carboxamide] | 2 % of Con. | 6 % of Con. | 1 to 10 | 
O=C(NC1CCNCC1)c1n[nH]c2ccc(-c3ccnc(F)c3)cc12 [Compound 13, 5-(2-fluoropyridin-4-yl)-N-(piperidin-4-yl)-1H-indazole-3-carboxamide] |  |  | 10 to 100 | 
O=C(NCCN1CCOCC1)c1n[nH]c2ccc(-c3cccnc3F)cc12 [Compound 22, 5-(2-fluoropyridin-3-yl)-N-(2-morpholinoethyl)-1H-indazole-3-carboxamide] |  |  | 100 to 1000 | 
N[C@H]1CC[C@@H](NC(=O)c2n[nH]c3ccc(-c4cccnc4F)cc23)CC1 [Compound 18, N-((1s, 4s)-4-aminocyclohexyl)-5-(2-fluoropyridin-3-yl)-1H-indazole-3-carboxamide] |  |  | 100 to 1000 | 
O=C(NC1CCNC1)c1n[nH]c2ccc(-c3cccnc3F)cc12 (stereo not drawn) [Compound 20, 5-(2-fluoropyridin-3-yl)-N-(pyrrodin-3-yl)-1H-indazole-3-carboxamide] |  |  | 10 to 100 | 
O=C(Nc1ccc2c(c1)CN(C(=O)C(F)(F)F)CC2)c1nn(C2CCCCO2)c2ccc(-c3cccnc3F)cc12 (stereo not drawn) [Compound 53, 5-(2-fluoropyridin-3-yl)-1-(tetrahydro-2H-pyran-2-yl)-N-(2-(2,2,2-trifluoroacetyl)-1,2,3,4-tetrahydroisoquinolin-7-yl)-1H-indazole-3-carboxamide] | 13 % of Con. | 10 % of Con. | 1 to 10 | 
O=C(c1n[nH]c2ccc(-c3cccnc3F)cc12)N1CCc2ccccc2C1 [Compound 21, (3,4-dihydroisoquinolin-2-(1H)-yl)(5-(2-fluoropyridin-3-yl)-1H-indazol-3-yl)methanone] |  |  | 100 to 1000 | 
O=C(Nc1ccncc1)c1n[nH]c2ccc(-c3cn[nH]c3)cc12 [Compound 26, 5-(1H-pyrazol-4-yl)-N-(pyridin-4-yl)-1H-indazole-3-carboxamide] | 30 % of Con. | 24 % of Con. | 10 to 100 | 
O=C(NC1CCN(C(=O)c2ccccc2)CC1)c1nn(C(=O)c2ccccc2)c2ccc(-c3cccnc3F)cc12 [Compound 10, 1-benzoyl-N-(1-benzoylpiperidin-4-yl)-5-(2-fluoropyridin-3-yl)-1H-indazole-3-carboxamide] |  |  | 10 to 100 | 
O=Cc1cc2c(cc1-c1ccc3[nH]nc(C(=O)Nc4ccncc4)c3c1)OCO2 [Compound 52, 5-(6-formylbenzo[d][1,3]dioxol-5-yl)-N-(pyridin-4-yl)-1H-indazole-3-carboxamide] | 39 % of Con. | 32 % of Con. |  | 10 to 100
O=C(NCc1ccncc1)c1n[nH]c2ccc(-c3cccnc3F)cc12 [Compound 51, 5-(2-fluoropyridin-3-yl)-N-(pyridin-4-ylmethyl)-1H-indazole-3-carboxamide] | 44 % of Con. | 37 % of Con. | 10 to 100 | 
O=C(Nc1ccncc1)c1n[nH]c2ccc(-c3ccc(N4CCNCC4)cc3)cc12 [Compound 46, 5-(4-(piperazin-1-yl)phenyl)-N-(pyridin-4-yl)-1H-indazole-3-carboxamide hydrochloride] | 58 % of Con. | 46 % of Con. | 10 to 100 | 
CCCn1cc(-c2ccc3[nH]nc(C(=O)Nc4ccncc4)c3c2)cn1 [Compound 36, 5-(1-propyl-1H-pyrazol-4-yl)-N-(pyridin-4-yl)-1H-indazole-3-carboxamide] | 28 % of Con. | 15 % of Con. | 1 to 10 | 
CC1NCCc2ccc(NC(=O)c3n[nH]c4ccc(-c5cccnc5F)cc34)cc21 (stereo not drawn) [Compound 63, 5-(2-fluoropyridin-3-yl)-N-(1-methyl-1,2,3,4-tetrahydroisoquinolin-7-yl)-1H-indazole-3-carboxamide] | 4 % of Con. | 7 % of Con. | 1 to 10 | 
O=C(Nc1ccc2c(c1)CN(C(=O)C(F)(F)F)CC2)c1n[nH]c2ccc(-c3cccnc3F)cc12 [Compound 24, 5-(2-fluoropyridin-3-yl)-N-(2-(2,2,2-trifluoroacetyl)-1,2,3,4-tetrahydroisoquinolin-7-yl)-1H-indazole-3-carboxamide] |  | 10 % of Con. | 1 to 10 | 
O=C(Nc1ccncc1)c1n[nH]c2ccc(-c3ccoc3)cc12 [Compound 34, 5-(furan-3-yl)-N-(pyridin-4-yl)-1H-indazole-3-carboxamide] | 51 % of Con. | 49 % of Con. | 10 to 100 | 
CC1(C)Cc2ccc(NC(=O)c3n[nH]c4ccc(-c5cccnc5F)cc34)cc2CN1 [Compound 71, N-(3,3-dimethyl-1,2,3,4-tetrahydroisoquinolin-7-yl)-5-(2-fluoropyridin-3-yl)-1H-indazole-3-carboxamide] | 10 % of Con. | 9 % of Con. | 1 to 10 | 
Cn1ncc2c(NC(=O)c3n[nH]c4ccc(-c5cccnc5F)cc34)ccnc21 [Compound 65, 5-(2-fluoropyridin-3-yl)-N-(1-methyl-1H-pyrazolo[3,4-b]pyridin-4-yl)-1H-indazole-3-carboxamide] | 24 % of Con. | 28 % of Con. | 10 to 100 | 
O=C(NC1CCCCC1)c1n[nH]c2ccc(-c3cccnc3F)cc12 [Compound 14, N-Cyclohexyl-5-(2-fluoropyridin-3-yl)-1H-indazole-3-carboxamide] |  |  | 100 to 1000 | 
O=C(Nc1ccc2c(c1)CNCC2)c1n[nH]c2ccc(-c3cccnc3F)cc12 [Compound 55, 5-(2-fluoropyridin-3-yl)-N-(1,2,3,4-tetrahydroisoquinolin-7-yl)-1H-indazole-3-carboxamide hydrochloride] | 10 % of Con. | 12 % of Con. | 1 to 10 | 
O=C(Nc1ccncc1)c1n[nH]c2ccc(-c3cnn(Cc4ccccc4)c3)cc12 [Compound 33, 5-(1-benzyl-1H-pyrazol-4-yl)-N-(pyridin-4-yl)-1H-indazole-3-carboxamide] | 20 % of Con. |  | 1 to 10 | 
O=C(NC1CCN(C(=O)C2CC2)CC1)c1nn(C(=O)C2CC2)c2ccc(-c3cccnc3F)cc12 [Compound 11, 1-(cyclopropanecarbonyl)-N-(1-(cyclopropanecarbonyl)piperidin-4-yl)-5-(2-fluoropyridin-3-yl)-1H-indazole-3-carboxamide] |  |  | 100 to 1000 | 
Cn1cc(-c2ccc3[nH]nc(C(=O)Nc4ccncc4)c3c2)cn1 [Compound 29, 5-(1-methyl-1H-pyrazol-4-yl)-N-(pyridin-4-yl)-1H-indazole-3-carboxamide] | 31 % of Con. | 16 % of Con. | 10 to 100 | 
O=C(Nc1ccc2c(c1)CCNC2)c1n[nH]c2ccc(-c3cccnc3F)cc12 [Compound 64, 5-(2-fluoropyridin-3-yl)-N-(1,2,3,4-tetrahydroisoquinolin-6-yl)-1H-indazole-3-carboxamide] | 8 % of Con. | 7 % of Con. | 1 to 10 | 
O=C(Nc1ccncc1)c1nn(C2CCCCO2)c2ccc(-c3cccnc3F)cc12 (stereo not drawn) [Compound 66, 5-(2-fluoropyridin-3-yl)-N-(pyridin-4-yl)-1-(tetrahydro-2H-pyran-2-yl)-1H-indazole-3-carboxamide] | 55 % of Con. | 11 % of Con. |  | 10 to 100
O=C(N[C@H]1CC[C@H](O)CC1)c1n[nH]c2ccc(-c3cccnc3F)cc12 [Compound 16, 5-(2-fluoropyridin-3-yl)-N-((1r,4r)-4-hydroxycyclohexyl)-1H-indazole-3-carboxamide] |  |  | 100 to 1000 | 
N[C@H]1CC[C@H](NC(=O)c2n[nH]c3ccc(-c4cccnc4F)cc23)CC1 [Compound 19, N-((1r, 4r)-4-aminocyclohexyl)-5-(2-fluoropyridin-3-yl)-1H-indazole-3-carboxamide] |  |  | 100 to 1000 | 
O=C(NC1CCN(C(=O)c2ccccc2)CC1)c1n[nH]c2ccc(-c3cccnc3F)cc12 [Compound 12, N-(1-benzoylpiperidin-4-yl)-5-(2-fluoropyridin-3-yl)-1H-indazole-3-carboxamide] |  |  | 10 to 100 | 
